What all share (format): functional
One assay relates to Pseudomonas aeruginosa. The assay can be described thus: Antibacterial activity against Pseudomonas aeruginosa MTCC 1034 assessed as reduction in bacterial growth.
Assay [1] relates to Bacillus subtilis. Nature of the assay: Antibacterial activity against Bacillus subtilis MTCC 441 assessed as reduction in bacterial growth.
For assay [2], the system named is Candida albicans. Nature of the assay: Antifungal activity against Candida albicans ATCC 90028 assessed as growth inhibition incubated for 24 hrs.
Assay [3] has as its system Candida albicans. The assay can be described thus: Antifungal activity against Candida albicans Y0109 assessed as reduction in fungal growth incubated for 24 hrs by NCCLS based assay.
Assay [4] deals with Candida albicans. Nature of the assay: Antifungal activity against Candida albicans SC5314 assessed as reduction in fungal growth incubated for 24 hrs by NCCLS based assay.
The test system of another assay is Nakaseomyces glabratus. Nature of the assay: Antifungal activity against Candida glabrata 537 assessed as reduction in fungal growth incubated for 72 hrs by NCCLS based assay.
Assay [5] deals with Cryptococcus neoformans. Nature of the assay: Antifungal activity against Cryptococcus neoformans 32609 assessed as reduction in fungal growth incubated for 72 hrs by NCCLS based assay.
In a further assay the test system is Aspergillus fumigatus. The assay can be described thus: Antifungal activity against Aspergillus fumigatus 7544 assessed as reduction in fungal growth incubated for 5 to 7 days by NCCLS based assay. The settings on record: time 5-7 day.
In the next assay the test system is Trichophyton rubrum. Nature of the assay: Antifungal activity against Trichophyton rubrum assessed as reduction in fungal growth incubated for 5 to 7 days by NCCLS based assay. Particulars: time 5-7 day.
A further assay relates to Nannizzia gypsea. The assay can be described thus: Antifungal activity against Microsporum gypseum assessed as reduction in fungal growth incubated for 5 to 7 days by NCCLS based assay. The settings on record: time 5-7 day.
The test system of assay [6] is Staphylococcus aureus. The assay can be described thus: Antibacterial activity against Staphylococcus aureus assessed as diameter of inhibition zone incubated for 24 hrs by well diffusion assay. For orientation: A growth-free zone around the sample is the usual read-out of agar diffusion tests.
Assay [7] relates to Bacillus subtilis. Nature of the assay: Antibacterial activity against Bacillus subtilis RCMB 010069 assessed as diameter of inhibition zone incubated for 24 hrs by well diffusion assay.
A further assay concerns Proteus vulgaris. Nature of the assay: Antibacterial activity against Proteus vulgaris RCMB 004 assessed as diameter of inhibition zone incubated for 24 hrs by well diffusion assay.
The subject of another assay is Escherichia coli. The assay can be described thus: Antibacterial activity against Escherichia coli RCMB 010052 assessed as diameter of inhibition zone incubated for 24 hrs by well diffusion assay.
The subject of assay [8] is Aspergillus flavus. Nature of the assay: Antifungal activity against Aspergillus flavus assessed as diameter of inhibition zone incubated for 24 hrs by well diffusion assay.
The subject of the next assay is Geotrichum candidum. Nature of the assay: Antifungal activity against Geotrichum candidum RCMB 052006 assessed as diameter of inhibition zone incubated for 24 hrs by well diffusion assay.
For assay [9], the system named is Staphylococcus aureus. Nature of the assay: Antibacterial activity against methicillin resistant Staphylococcus aureus incubated for 20 hrs by broth microdilution method.
Assay [10] relates to Staphylococcus aureus. Nature of the assay: Antibacterial activity against Staphylococcus aureus assessed as diameter of inhibition zone.
Assay [11] has as its system Candida albicans. Nature of the assay: Antifungal activity against Candida albicans assessed as fungal growth inhibition by CLSI based method.
Assay [12] has as its system Cryptococcus neoformans. Nature of the assay: Antifungal activity against Cryptococcus neoformans assessed as fungal growth inhibition by CLSI based method.
Assay [13] relates to Candida albicans. The assay can be described thus: Antifungal activity against Candida albicans assessed as inhibition of fungal growth.
The test system of assay [14] is Aspergillus flavus. The assay can be described thus: Antifungal activity against Aspergillus flavus assessed as inhibition of fungal growth.
The next assay has as its system Rhizopus. The assay can be described thus: Antifungal activity against Rhizopus assessed as inhibition of fungal growth.

≈ marks a conversion by molar mass, not a printed value.

As usually defined, the MIC is the least concentration at which growth counts as inhibited. For `C=CCCC1CC(=O)N1Cc1cn(-c2cccc([N+](=O)[O-])c2)nn1` (centres undefined), the MIC with Pseudomonas aeruginosa and in the assay with Bacillus subtilis [1] was 1.25 mg/L (≈ 3.82 µM) throughout.

As for `CCCCNC(=O)c1nnn(-c2ccc(C)cc2)c1CCC`, in the assay with Candida albicans [2], the “growth inhibition (GI)” value is given as 21.2%.

Consider `[N-]=[N+]=Nc1ccc(-n2cc(Cn3c(=O)sc4cc(Br)ccc43)nn2)c(Cl)c1`, for which, in the assay on Candida albicans [2], the “growth inhibition (GI)” value stood at 63.7%.

What is called MIC80 is an inhibitory concentration at the 80% level, which refers to growth in some studies and to a panel of isolates in others. As to `COc1ccc(-c2cc(CO[C@H](C)[C@](O)(Cn3cncn3)c3ccc(F)cc3F)on2)cc1`, the MIC80 turned out to be 0.125 mg/L (≈ 0.274 µM) in the assay on Candida albicans [3]; 0.5 mg/L (≈ 1.1 µM) with Candida albicans [4]; 0.5 mg/L (≈ 1.1 µM) in the assay on Nakaseomyces glabratus; 1 mg/L (≈ 2.19 µM) with Cryptococcus neoformans [5]; 4 mg/L (≈ 8.76 µM) with Aspergillus fumigatus; 1 mg/L (≈ 2.19 µM) in the assay with Trichophyton rubrum. The MIC80 in the assay on Nannizzia gypsea was found to be 1 mg/L (≈ 2.19 µM).

Regarding `C=CCCC1CC(=O)N1Cc1cn(-c2ccc(OC)cc2)nn1` (centres undefined), the MIC in the assay on Pseudomonas aeruginosa and with Bacillus subtilis [1] was 1.25 mg/L (≈ 4 µM) each time.

Take `Cc1c(-c2cc(-c3c[nH]c4ccccc34)nc(S)n2)nnn1-c1ccc(-n2nnc(-c3cc(-c4c[nH]c5ccccc45)nc(S)n3)c2C)cc1`: the “diameter of the inhibition zone (DIZ)” value in the assay with Staphylococcus aureus [6] stood at 20.6 mm; with Bacillus subtilis [7], 37.8 mm; in the assay on Proteus vulgaris, 22.2 mm; in the assay on Escherichia coli, 30.9 mm; in the assay on Aspergillus flavus [8], 19.1 mm; in the assay on Geotrichum candidum, 21.1 mm.

Consider `COc1cc(/C=C/c2ccc(OCc3cn(CCC(=O)O)nn3)cc2)cc(OC)c1`, for which the lowest concentration to inhibit growth in the assay on Staphylococcus aureus [9] (MIC) was 625 mg/L (≈ 1530 µM).

In the case of `CCCCC(=O)c1cc(C(=O)CCCC)cc(-n2cc(C(C)N3C(=O)C(=O)c4ccccc43)nn2)c1` (centres undefined), in the assay with Staphylococcus aureus [10], the “diameter of the inhibition zone (DIZ)” value turned out to be 6 mm.

Consider `CCCNC(=O)c1nnn(-c2ccc(CC)cc2)c1C`, for which the “growth inhibition (GI)” value in the assay on Candida albicans [2] stood at 14.1%.

Consider `C=CCCC1CC(=O)N1Cc1cn(-c2cccc(Cl)c2)nn1` (centres undefined), for which the MIC with Pseudomonas aeruginosa and in the assay with Bacillus subtilis [1] was 1.25 mg/L (≈ 3.95 µM) in each case.

On to `C=CCCC1CC(=O)N1Cc1cn(-c2ccc([N+](=O)[O-])cc2)nn1` (centres undefined), for which the minimal inhibitory concentration (MIC) in the assay with Pseudomonas aeruginosa and with Bacillus subtilis [1] was 1.25 mg/L (≈ 3.82 µM) throughout.

Regarding `O=C(c1ccc(F)cc1)C(Cc1ccccc1)n1cncn1` (centres undefined), the MIC with Candida albicans [11] and in the assay on Cryptococcus neoformans [12] was 0.5 mg/L (≈ 1.69 µM) each time.

On to `O=C(c1ccc(Cl)cc1)C(Cc1ccccc1)n1cncn1` (centres undefined), for which the minimal inhibitory concentration (MIC) in the assay on Candida albicans [11] and with Cryptococcus neoformans [12] was 0.5 mg/L (≈ 1.6 µM) each time.

Take `COCCOCCOCCOCCOC(=O)c1cc(C(=O)OCCOCCOCCOC)cc(-n2cc(CN3C(=O)C(=O)c4ccccc43)nn2)c1`: the “diameter of the inhibition zone (DIZ)” value in the assay with Staphylococcus aureus [10] was 12 mm.

Turning to `CC(c1cn(-c2cnc(-c3ccccc3)c(-c3ccccc3)n2)nn1)N1C(=O)C(=O)c2ccccc21` (centres undefined), the “diameter of the inhibition zone (DIZ)” value in the assay on Staphylococcus aureus [10] came to 6 mm.

In turn, `COc1cc(/C=C/c2ccc(OCc3cn(CCCCC(=O)O)nn3)cc2)cc(OC)c1` returned an MIC against Staphylococcus aureus [9] of 78.1 mg/L (≈ 179 µM).

In the case of `COc1cc([N+](=O)[O-])c(OC)cc1-n1cc(C(C)N2C(=O)C(=O)c3ccccc32)nn1` (centres undefined), the “diameter of the inhibition zone (DIZ)” value in the assay on Staphylococcus aureus [10] was determined as 9 mm.

`C[C@@H]1[C@H](O)[C@@H](C)/C=C/C=C/C=C/C=C/C=C/C=C/C=C/[C@H](O[C@@H]2O[C@H](C)[C@@H](O)[C@H](N)[C@@H]2O)C[C@@H]2O[C@](O)(C[C@@H](O)C[C@@H](O)[C@H](O)CC[C@@H](O)C[C@@H](O)CC(=O)O[C@H]1C)C[C@H](O)[C@H]2C(=O)O` [AMPHOTERICIN B]: the MIC in the assay on Candida albicans [13] stood at 8 mg/L (≈ 8.66 µM); in the assay on Aspergillus flavus [14], 8 mg/L (≈ 8.66 µM); in the assay with Rhizopus, 16 mg/L (≈ 17.3 µM).

For the molecule `C[C@@H](c1nc(-c2ccc(C#N)cc2)cs1)[C@](O)(Cn1cncn1)c1ccc(F)cc1F` [RAVUCONAZOLE], the MIC80 was 0.062 mg/L (≈ 0.142 µM) with Candida albicans [3]; 0.25 mg/L (≈ 0.571 µM) with Candida albicans [4]; 0.125 mg/L (≈ 0.286 µM) in the assay on Nakaseomyces glabratus; 0.125 mg/L (≈ 0.286 µM) with Cryptococcus neoformans [5]; 2 mg/L (≈ 4.57 µM) in the assay on Aspergillus fumigatus; 0.125 mg/L (≈ 0.286 µM) with Trichophyton rubrum. Moreover, the MIC80 in the assay with Nannizzia gypsea turned out to be 1 mg/L (≈ 2.29 µM).

The record behind these values is ChEMBL document CHEMBL5634077, “Recent advances in 1,2,3- and 1,2,4-triazole hybrids as antimicrobials and their SAR: A critical review” (2023).
